Source: patent US10376553B2, “Pharmaceutical composition for preventing and treating chronic obstructive lung disease containing, as active ingredient, Magnoliae flos extract, fraction, or active fraction thereof” (KOREA RESEARCH INSTITUTE OF BIOSCIENCE AND BIOTECHNOLOGY, priority 2015, dated 2019)

Columns and labels:
IL-6 = IL-6 level in BALF of the COPD model (ELISA); type: in vivo, C57BL/6N mice; conditions: vs COPD-induced group; for IL-6 inhibition rate (%): BALF
Description: (§1) Cytokines were measured in the cell supernatant obtained in <Test Example 6-3> above by the following method. Specifically, the levels of IL-6 (R & D System, USA) and TNF-α (BD Bioscience, USA) in the separated BALF were measured by enzyme-linked immuno-sorbent assay (ELISA). Each cytokine analysis was carried out according to the manufacturer's test method.

reactive oxygen species = assay: Production of active oxygen species in BALF of the COPD model (DCF-DA); type: in vivo, C57BL/6N mice; conditions: for rate of inhibiting reactive oxygen compared with ROF drug control group (in words): 30 mg/kg
Description: Production of active oxygen species in the bronchoalveolar lavage fluid obtained in <Test Example 6-3> above was confirmed by the following method.
Specifically, the separated BALF (200 μL) was treated to the final concentration of 20 μM of DCF-DA (dihydrodichlorofluorescein diacetate, Sigma-Aldrich, USA), followed by culturing for 30 minutes and measurement using Fluorescence (Molecular Device, USA). The inhibition rate was calculated by Equation 3 above.

TNF-α = TNF-α level in BALF of the COPD model (ELISA); type: in vivo, C57BL/6N mice; conditions: vs COPD-induced group; for TNF-α inhibition rate (%): BALF
Description: as §1

MUC5AC promoters = assay: MUC5AC promoter luciferase reporter assay in H292 cells; type: cell-based, human; conditions: Table 7, MUC5AC promoter luciferase reporter, 10 μM, TNF-α 20 ng/mL
Source text: The degree of activation of luciferase was confirmed using a One-glow Luciferase Assay System (Promega).
As a result, as shown in the following Table 7, the activity of the MUC5AC promoters increased in the group treated with TNF-α.

H292 cells = assay: Cytotoxicity (CCK-8 cell viability) of the compounds of Magnoliae flos in H292 cells; type: cell-based, human; conditions: 24 h, vs 0.2% DMSO control = 100%
Description: Then, 10 μl of the CCK-8 solution (Dojindo Laboratories, Japan) was mixed with 90 μl of the medium, and 100 μl thereof was added per well. After incubation for a minimum of 30 minutes to a maximum of 4 hours, the absorbance was measured at 570 nm. The cell viability was calculated according to the following Equation 2 with a negative control group treated with 0.2% DMSO as a reference of 100%.
Cell viability=(Compound treated OD 570 nm value)×100/(Negative control group OD 570 nm value) [Equation 2]

[1] = test system: inflammatory cells in the bronchoalveolar lavage fluid; assay: Inflammatory cells in bronchoalveolar lavage fluid of the COPD mouse model (cigarette smoke + LPS); type: in vivo, C57BL/6N mice; conditions: BALF, vs COPD-induced group
Description: Six-week-old male SPF (specific pathogen-free) C57BL/6N mice (22 to 24 g) were supplied by Koatech (Korea). These animals were fed with a sufficient amount of solid feed (no antibiotics, Samyang Feed Co.) and water until the day of the experiment. They were allowed to adapt for 1 week in a light-dark cycle environment at a temperature of 22±2° C. and a humidity of 55±15%, and then subjected to the experiment.
The animal model was exposed to cigarette smoke to induce chronic obstructive pulmonary disease. 3R4F Kentuchy Reference Cigarettes as standard cigarettes for use to generate cigarette smoke were supplied by University of California (USA). The standard cigarettes contain 9.4 mg of tar, 11 mg of total particle matter (TPM), and 12 mg of carbon monoxide per 1 cigarette. The standard cigarettes were used after harmonization for 48 hours to 72 hours at a temperature of 22±1° C. and a humidity of 60±2%. Further, Cigarette Smoke Generator manufactured by Korea BioLink (Korea) was used for exposure to cigarette smoke. Cigarette smoke was inhaled for 1 hour (8 pcs/hour) for 7 days from 1 hour after oral administration of a sample. 10 μg of LPS (lipopolysaccharide) in PBS 50 μL was injected intranasally to each mouse on the 4th day of the experiment after the mouse was anesthetized with zoletyl 1 hour before the exposure to cigarette smoke. The smoking condition was 8 puffs per 1 standard cigarette (volume: 45 mL, duration: 2 seconds, and interval: 1 time/min).
The active fraction of Magnoliae flos (15, 30 mg/kg) and roflumilast (10 mg/kg) as therapeutic substances were dissolved in 0.5% sodium carboxymethyl cellulose and were orally administered 1 hour before the exposure to cigarette smoke.
The experimental groups were divided into (i) normal control (NC) group; (ii) cigarette smoke+LPS exposure group (COPD); (iii) experimental group administered with roflumilast (ROF) (10 mg/kg, p.o) 1 hour before the exposure to cigarette smoke+LPS; and (iv) experimental group administered with the active fraction of Magnoliae flos (15, 30 mg/kg, p.o; Magnoliae flos 15 and Magnoliae flos 30) 1 hour before the exposure to cigarette smoke+LPS. […] Then, they were administered in the same manner as above.
The bronchial alveolar lavage fluid was separated from the animal model treated with the active fraction and the compounds of Magnoliae flos in <Test Example 6-2> above in the following manner, and the number of inflammatory cells was measured.
Specifically, a mouse sonde was inserted into the bronchial tube, a 1 mL syringe containing 0.7 mL of DPBS (Dulbecco's Phosphate-Buffered Saline) was connected thereto, and DPBS was injected into the lung. The injected DPBS was recovered, and this procedure was repeated twice. The bronchoalveolar lavage fluid separated by DPBS was centrifuged at 1,500 rpm for 15 minutes to make a cell pellet. The supernatant was stored frozen at −70° C. for cytokine analysis. Each cell obtained was suspended in DPBS, attached to a slide glass using a cytospin centrifuge, and Diff-Quik stained. The number of inflammatory cells in each sample was counted through microscopic examination, and the inhibition rate was calculated according to the following Equation 3.
Inhibition rate=(Value of COPD-induced group−value of target substance administered group)×100/(Value of COPD-induced group) [Equation 3]

MUC5AC protein = assay: Inhibition of MUC5AC protein production (immunoassay) by the compounds; type: cell-based, human; conditions: for MUC5AC secretion (Relative amount to TNF-α treated group, %) / Inhibition rate (%): TNF-α 20 ng/mL; for Inhibition rate (%): MUC5AC secretion; for production of MUC5AC (in words): vs TNF-α treated group = 100%
Description: For immunoassay of the resulting MUC5AC, the supernatant (50 uL) recovered was dispensed on to a 96-well plate and dried in a thermostat set at 50° C. It was washed with PBS supplemented with 1% BSA and reacted with an MUC5AC antibody (abcam, USA) at room temperature for 1 hour. A secondary antibody was dispensed thereto for reaction for 1 hour. It was washed again and then reacted with a 3,3′,5,5′-tetramethylbenzidine peroxide solution for 20 minutes. After the reaction was stopped with a sulfuric acid solution, the degree of color development was measured at 450 nm.
As a result, as shown in the following Table 6, the amount of MUCSAC secretion increased in the group treated with TNF-α.

[2] = 15 mg/kg p.o., vs COPD-induced group
[3] = 30 mg/kg p.o., vs COPD-induced group

| SMILES | IL-6 inhibition rate (%) (IL-6; 15 mg/kg p.o.) | IL-6 inhibition rate (%) (IL-6; 30 mg/kg p.o.) | Active oxygen inhibition rate (%) (reactive oxygen species; [2]) | rate of inhibiting reactive oxygen compared with ROF drug control group (in words) (reactive oxygen species) | Active oxygen inhibition rate (%) (reactive oxygen species; [3]) | TNF-α inhibition rate (%) (TNF-α; 15 mg/kg p.o.) | TNF-α inhibition rate (%) (TNF-α; 30 mg/kg p.o.) | Inhibition rate (%) (MUC5AC promoters) | MUC5AC secretion (Relative amount to TNF-α treated group, %) (MUC5AC promoters) | Viability of H292 cells (%, average ± deviation) (H292 cells; 2.5 μM) | Inhibition rate of inflammatory cell infiltration (%) Macrophage ([1]; 15 mg/kg p.o.) | Inhibition rate of inflammatory cell infiltration (%) Neutrophil ([1]; 15 mg/kg p.o.) | Inhibition rate of inflammatory cell infiltration (%) Total inflammatory cells ([1]; 15 mg/kg p.o.) | Inhibition rate of inflammatory cell infiltration (%) Macrophage ([1]; 30 mg/kg p.o.) | Inhibition rate of inflammatory cell infiltration (%) Neutrophil ([1]; 30 mg/kg p.o.) | Inhibition rate of inflammatory cell infiltration (%) Total inflammatory cells ([1]; 30 mg/kg p.o.) | Inhibition rate (%) (MUC5AC protein; 2.5 μM) | Inhibition rate (%) (MUC5AC protein; 5 μM) | Inhibition rate (%) (MUC5AC protein; 10 μM) | production of MUC5AC (in words) (MUC5AC protein) | other results |
| --- | --- | --- | --- | --- | --- | --- | --- | --- | --- | --- | --- | --- | --- | --- | --- | --- | --- | --- | --- | --- | --- |
| COc1ccc([C@H]2OC[C@H]3[C@@H]2CO[C@@H]3c2cc(OC)c(OC)c(OC)c2)cc1OC [Compound S2, magnolin] | 64.9 ± 4.8% | 36.6 ± 8.9% | 21.8 ± 4.4% | higher rates of inhibiting reactive oxygen than that of the drug control group treated with ROF | 14.0 ± 8.3% | 29.2 ± 4.8% | 31.0 ± 7.2% | 55.2% | 44.8 ± 7.33% | 121.81 ± 2.42% | 21.6 ± 6.3% | 47.2 ± 3.6% | 44.7 ± 3.9% | 10.7 ± 9.8% | 31.0 ± 7.1% | 30.7 ± 5.3% | 2.43% | 18.83% | 34.33% | inhibited in a manner depending on the concentrations | Viability of H292 cells (%, average ± deviation) (H292 cells; 5 μM): 119.94 ± 2.81%; Viability of H292 cells (%, average ± deviation) (H292 cells; 10 μM): 118.37 ± 2.55%; Viability of H292 cells (%, average ± deviation) (H292 cells; 20 μM): 112.99 ± 4.16%; MUC5AC secretion (Relative amount to TNF-α treated group, %) (MUC5AC protein; 2.5 μM): 97.57 ± 0.78%; MUC5AC secretion (Relative amount to TNF-α treated group, %) (MUC5AC protein; 5 μM): 81.17 ± 0.82%; MUC5AC secretion (Relative amount to TNF-α treated group, %) (MUC5AC protein; 10 μM): 65.67 ± 0.99%; production of MUC5AC (in words) (MUC5AC protein; listed as Formula 3): inhibited the production of MUC5AC in a manner depending on concentration |
| COc1cc([C@H]2OC[C@H]3[C@@H]2CO[C@@H]3c2cc(OC)c(OC)c(OC)c2)cc(OC)c1OC [Compound S3, dimethylliroresinol] | 45.9 ± 6.2% | 43.9 ± 6.5% | 15.1 ± 4.7% | – | 32.5 ± 3.1% | 26.7 ± 7.0% | 41.7 ± 4.4% | 56.27% | – | 100.55 ± 1.26% | 19.4 ± 5.4% | 17.9 ± 6.6% | 23.3 ± 5.5% | 33.2 ± 6.2% | 42.1 ± 3.9% | 43.5 ± 3.4% | 2.5% | 29.38% | 30.34% | inhibited in a manner depending on the concentrations | production of active oxygen species (in words) (reactive oxygen species; 15 and 30 mg/kg, vs COPD-induced group): relatively higher inhibition rates in a manner depending on concentration; TNF-α secretion in the bronchoalveolar lavage fluid (in words) (TNF-α): concentration-dependent inhibition; increase in inflammatory cells (in words) [1]: effectively inhibited; production of MUC5AC (in words) (MUC5AC protein; listed as Formula 4): inhibited the production of MUC5AC in a manner depending on concentration |
| COc1ccc([C@H]2OC[C@H]3[C@@H]2CO[C@H]3c2cc(OC)c(OC)c(OC)c2)cc1OC [Compound S4, epimagnolin] | 0.0 ± 0.0% | 40.3 ± 3.7% | 13.5 ± 4.3% | higher rates of inhibiting reactive oxygen than that of the drug control group treated with ROF | 15.9 ± 4.2% | 13.8 ± 5.5% | 24.7 ± 6.5% | 63.2% | 36.8 ± 6.97% | 99.81 ± 2.15% | 0.0 ± 0.0% | 13.8 ± 4.9% | 14.0 ± 5.1% | 21.4 ± 6.5% | 25.7 ± 5.5% | 29.1 ± 4.4% | 9.45% | 25.76% | 36.29% | inhibited in a manner depending on the concentrations | IL-6 in the bronchoalveolar lavage fluid (in words) (IL-6): concentration-dependent decrease; TNF-α secretion in the bronchoalveolar lavage fluid (in words) (TNF-α): concentration-dependent inhibition; Viability of H292 cells (%, average ± deviation) (H292 cells; 5 μM): 100.74 ± 2.84%; Viability of H292 cells (%, average ± deviation) (H292 cells; 10 μM): 99.45 ± 1.53%; Viability of H292 cells (%, average ± deviation) (H292 cells; 20 μM): 97.20 ± 1.99%; MUC5AC secretion (Relative amount to TNF-α treated group, %) (MUC5AC protein; 2.5 μM): 90.55 ± 2.59%; MUC5AC secretion (Relative amount to TNF-α treated group, %) (MUC5AC protein; 5 μM): 74.24 ± 2.83%; MUC5AC secretion (Relative amount to TNF-α treated group, %) (MUC5AC protein; 10 μM): 63.71 ± 1.27%; production of MUC5AC (in words) (MUC5AC protein; listed as Formula 5): inhibited the production of MUC5AC in a manner depending on concentration |
